Consider ten compounds from US20160287553A1, “TRANSLATION INHIBITORS IN HIGH-DOSE CHEMO- AND/OR HIGH-DOSE RADIOTHERAPY” (DEUTSCHES KREBSFORSCHUNGSZENTRUM, priority 2013, published 2016).

In one series the test system is Peripheral blood T cells. In words: Etoposide-induced apoptotic cell death of T cells (DNA fragmentation, AnnexinV, FSC/SSC). Conditions: for Protection of normal T cells from Etoposide-induced cell death by Roc-derivatives: 50 μM Etoposide, 75 nM Roc-derivative, 24 h (FIG. 6b). The method, then:
The human malignant cell lines EU-3 (acute lymphoblastic leukemia), DND-41 (T cell leukemia), Hut-78 (T cell lymphoma), SKW6.4 (B cell leukemia), Reh (acute lymphoblastic leukemia), IM-9 (Chronic myeloid leukemia), HL-60 (promyelocytic leukemia), L1236 (Hodgkin's lymphoma) and NCI-H209 (small cell lung cancer) were cultured at 37° C. with 5% CO2 in RPMI-1640 medium (Sigma-Aldrich, Munich, Germany) supplemented with 10% FCS, 100 U/ml Penicillin (Sigma-Aldrich, Munich, Germany) and 100 μg/ml Streptamycin (Sigma-Aldrich, Munich, Germany) SCLC-21H cells (small cell lung cancer) were cultured in DMEM medium (Sigma-Aldrich, Munich, Germany) supplemented with 10% FCS. Peripheral blood T lymphocytes were isolated as previously described (Klas et al., Int Immunol. 1993; 5: 625-630). B lymphocytes and NK cells were isolated by magnetic activated cell sorting using “B cell isolation kit II” (Miltenyi Biotech, Bergisch Gladbach, Germany) and “NK cell isolation kit, human” (Miltenyi Biotech, Bergisch Gladbach, Germany), respectively, according to the manufacturer's instructions. Human neutrophils were separated from peripheral blood mononuclear cells by Ficoll-Paque density centrifugation, followed by incubation in 1.05% dextran for 30 min at room temperature. Remaining erythrocytes were lysed by resuspension in ice-cold 0.2% sodium chloride solution. After 1 min ice-cold 1.6% sodium-chloride solution was added and lysis was stopped by addition of PBS and neutrophils were resuspended in medium at a concentration of 2×10^6 cells/ml. Human primary cardiomyocytes were purchased from PromoCell (Heidelberg, Germany) and cultured in Myocyte Growth Medium (PromoCell, Heidelberg, Germany). Remaining primary human cells were cultured in RPMI-1640 medium with the same conditions described above.
Apoptotic cell death was determined by AnnexinV staining, cellular forward scatter/side scatter (FSC/SSC) profile, or DNA fragmentation. For AnnexinV staining, 2×10^5 cells were treated with different drugs for indicated time periods, washed with AnnexinV binding buffer (0.01 M Hepes, 0.14 M NaCl, 2.5 mM CaCl2), and stained with AnnexinV-FITC antibody (Immunotools, Friesoythe, Germany) and 7-amino-actinomycin D (Sigma-Aldrich, Munich, Germany) for 30 min at 4° C. The amount of AnnexinV positive cells was determined by FACS measurement. DNA fragmentation was determined according to the method of Nicoletti (Nicoletti et al., J Immunol Methods. 1991; 139: 271-279). Briefly, 2×10^5 cells were treated as indicated, washed with PBS and lysed in Nicoletti buffer (0.1% sodium citrate, 0.1% Triton X-100, 50 μg/ml propidium iodide). DNA fragmentation was determined by FACS. Apoptosis-like cells were determined by forward scatter and side scatter (FSC/SSC) index. Specific DNA fragmentation/specific AnnexinV positive cells/specific apoptosis was calculated as follows: (percentage of experimental DNA fragmentation (or Annexin V positive cells or apoptosis)−percentage of spontaneous DNA fragmentation (or Annexin V positive cells or apoptosis)/(100−percentage of spontaneous DNA fragmentation (or Annexin V positive cells or apoptosis))×100.

The test system of series [1] is protein synthesis in T cells. In words: Translation assay: [35S]methionine incorporation in T cells. The class given is cell-based, human. As to conditions: T cells (FIG. 6b). The procedure: The relative amount of protein synthesis was determined by measuring the amount of incorporation of ^35S-methionine into the protein. Briefly, cells were pre-cultured in methionine-free medium (supplemented with 10% dialyzed FCS) for 3 h, followed by incubation with 3.5 μCi of ^35S-methionine-labeling mix (PerkinElmer, Waltham, Mass., USA) per 8×10^5 cells for 6 h as indicated. After the treatment, cells were washed twice with ice-cold PBS and lysed in RIPA buffer. 50 μl of each lysate were added to 1 ml of Liquid Scintillation Cocktail solution (Beckman Coulter, Brea, Calif., USA) and the amount of incorporated radioactivity was determined by liquid scintillation counting.
Roc-A has been well documented to inhibit protein translation (Polier et al., Chem Biol. 2012; 19: 1093-1104; Sadlish et al., ACS Chem Biol. 2013; doi:10.1021/cb400158t; Bleumink et al., Cell Death Differ. 2011; 18: 362-370; Cencic et al., PloS one. 2009; 4: e5223). Thus, we expected that Roc-A-mediated suppression of genotoxin-induced p53 upregulation may be regulated by inhibition of p53 protein synthesis.

A further series has as its system ERK. As to conditions: Polier et al., op. cit.; cited from earlier work.
Another series concerns p53. In words: p53 protein expression by immunoblot. The series is classed as cell-based, human. As to conditions: T cells, 100 nM Bortezomib. The method, then: Immunoblot analysis was carried out as previously described (Polier et al., Chem Biol. 2012; 19: 1093-1104). Briefly, 4-20×10^6 cells were treated with different reagents as indicated and lysed in RIPA buffer (50 mM Tris HCl, 137 mM NaCl, 0.5% Na Deoxycholate, 1% Triton X-100, 0.1% SDS, protease inhibitors). Proteins were separated by SDS-PAGE and transferred to a nitrocellulose membrane (Amersham Biosciences, Little Chalfon, UK) using a semi-dry blotting approach. The following antibodies were used: p53 (DO-1) antibody was purchased from Santa Cruz Biotechnology (Heidelberg, Germany). Tubulin and actin (A5441) antibodies were purchased from Sigma-Aldrich (St. Louis, USA).
The transcription factor p53 is a major regulator of DNA damage-induced apoptosis (Lowe et al., Cell. 1993; 74: 957-967). Therefore, we investigated the effect of Roc-A on the expression level of p53.
p53 protein expression can be regulated at the level of transcription, translation, and ubiquitination-mediated degradation (Marine & Lozano, Cell Death Differ. 2010; 17: 93-102). It has been shown that upon DNA damage p53 undergoes post-translational modifications leading to its deubiquitination and, thus, stabilization (Lee & Gu, Cell Death Differ. 2010; 17: 86-92). To investigate whether Roc-A could decrease p53 stability, we treated T cells with the proteasome inhibitor Bortezomib to block proteasome-mediated degradation.

The next series relates to Primary human T cells. Description: Ionizing radiation (IR)-induced apoptosis in T cells. The series is classed as cell-based. Conditions: 24 h, increasing doses of IR, different concentrations of FL3 (FIG. 8b). The method, then: (§1) DNA fragmentation was determined by FACS.
The radioprotective effect mediated by Roc-A was the highest when cells were treated with Roc-A 1 h before radiation of cells (FIG. 1d). However, when cells were treated 4 h after radiation, the radioprotective effect was still higher than 50% (FIG. 1d).

In another series the test system is malignant cells. Description: Fold change in cell death on raising the Etoposide dose, malignant cells (FIG. 9a-b). As to conditions: Etoposide from 6.25 μM to 50 μM, 24 h, solvent (FIG. 9a). The series is classed as cell-based. The procedure:
(§2) (a) Cells from (b) were grouped into malignant and non-malignant cells. Shown are means of three independent experiments. Abbreviations; HSPCs=hematopoietic stem and progenitor cells. (c-d) Malignant and non-malignant cells were exposed to ionizing radiation (IR) in the presence of 75 nM Roc-A or solvent (DMSO) and cell death was determined after 24 h by DNA fragmentation. Depicted is the fold-change in cell death that was measured when doses of IR were increased from 2 Gy to 10 Gy. (c) Cells from (d) were grouped into malignant and non-malignant cells. Shown are means of three independent experiments.
as §1
(§3) Roc-A specifically prevents the cause of chemotherapeutic and radiation-induced side-effects, i.e., the death of healthy cells. […] Consequently, high-dose therapy is not possible, as side effects would be too high.

A further series deals with non-malignant cells. Description: Fold change in cell death on raising the Etoposide dose, non-malignant cells (FIG. 9a-b). The class given is cell-based. Conditions: Etoposide from 6.25 μM to 50 μM, 24 h, solvent (FIG. 9a). The procedure:
as §2, §1, §3

Take `COC(=O)C1C(O)C2(O)c3c(OC)cc(OC)cc3OC2(c2ccc3c(c2)OCO3)C1c1ccccc1` (centres unmarked) [Roc-AF, 30,40-methylendioxy-methylrocaglate]: the “Protection of normal T cells from Etoposide-induced cell death by Roc-derivatives” value (“Protection of normal T cells” for short) with Peripheral blood T cells is recorded as “did not protect T cells”. For the same compound, the “Inhibition of [35S]methionine incorporation (protein translation)” value (shortened to “Inhibition … (protein translation)”) in series [1] is “did not inhibit protein translation”. Also, in the series with ERK, the “Inhibitory effect on ERK activity / activation” value is given as “do not show any or very little inhibitory effects on ERK activity”.
With `CNC(=O)[C@H]1[C@@H](O)[C@@]2(O)c3c(OC)cc(OC)cc3O[C@@]2(c2ccc(OC)cc2)[C@@H]1c1ccccc1` [Roc-Q, demethylrocaglamide], the “Protection of normal T cells” value with Peripheral blood T cells is given as “different levels of protection”. Also, the “Inhibition … (protein translation)” value in series [1] is “inhibited [^35S]methionine incorporation at different degrees”. Moreover, the “Inhibitory effect on ERK activity / activation” value in the series with ERK was “inhibit ERK activation with different efficacies”.
On to `COc1ccc([C@@]23Oc4cc(OC)cc(OC)c4[C@]2(O)[C@H](OC(C)=O)[C@H](C(=O)N(C)C)[C@H]3c2ccccc2)cc1` [Roc-AB, 1-O-acetyl-rocaglamide], for which the “Protection of normal T cells” value with Peripheral blood T cells is listed as “different levels of protection”. Moreover, the “Inhibition … (protein translation)” value in series [1] is “inhibited [^35S]methionine incorporation at different degrees”. Further, the “Inhibitory effect on ERK activity / activation” value with ERK was “inhibit ERK activation with different efficacies”.
`CC(C)C[C@H](NC(=O)[C@H](Cc1ccccc1)NC(=O)c1cnccn1)B(O)O` [Bortezomib, reference compound]: the “Interference with Roc-A block of Etoposide-induced p53 upregulation” value in the series on p53 (50 μM Etoposide, 75 nM Roc-A, 4 h (FIG. 6a)) is listed as “did also not interfere with the ability of Roc-A to block Etoposide-induced p53 upregulation”. Further, the “p53 level on proteasome inhibition” value in the series with p53 (absence of Roc-A (FIG. 6a)) is on record as “led to an increase in p53”; in the series on p53 (presence of 75 nM Roc-A (FIG. 6a)) it was “could not increase p53”.
Regarding `COc1cc(OC)c2c(c1)OC1(c3ccc4c(c3)OCO4)C(c3ccccc3)CC(=O)C21O` (centres unmarked) [Roc-AR, 1-oxo-40-demethoxy-30,40-methylenedioxyrocaglaol], in the series with Peripheral blood T cells, the “Protection of normal T cells” value was “different levels of protection”. Further, the “Inhibition … (protein translation)” value in series [1] is “inhibited [^35S]methionine incorporation at different degrees”. Besides, the “Inhibitory effect on ERK activity / activation” value with ERK is recorded as “inhibit ERK activation with different efficacies”.
As for `COc1cc(OC)c2c(c1)O[C@@]1(c3ccc(Br)cc3)[C@H](c3ccccc3)C[C@@H](O)[C@@]21O` (racemic) [FL3, racemic bromo-demethoxy-rocaglaol], the “Protection of T cells from Etoposide-induced apoptotic cell death by FL3” value in the series with Peripheral blood T cells (24 h, increasing doses of Etoposide, different concentrations of FL3 (FIG. 8a)) is recorded as “protects T cells”. The “Protection of T cells from IR-induced apoptotic cell death by FL3” value with Primary human T cells was “protects T cells”.
For the compound `COc1cc([C@@H]2c3cc4c(cc3[C@@H](O[C@@H]3O[C@@H]5CO[C@@H](C)O[C@H]5[C@H](O)[C@H]3O)[C@H]3COC(=O)[C@H]23)OCO4)cc(OC)c1O` [Etoposide, reference compound], in the series on Peripheral blood T cells (24 h, increasing concentrations of Etoposide), the “Cell death of normal T cells by the genotoxin” value was “caused cell death of normal T cells”. Moreover, the “Increase in Etoposide-induced cell death” value in the series on malignant cells was “approximately 3 fold”; in the series on non-malignant cells, “up to 3 fold”.
Take `COc1cc(OC)c2c(c1)OC1(c3ccc(OC)c(O)c3)C(c3ccccc3)C(C(=O)N(C)C)C(OC(C)=O)C21O` (centres unmarked) [Roc-I, C-1-O-acetyl-30-hydroxy-rocaglamide]: the “Protection of normal T cells” value with Peripheral blood T cells was “did not protect T cells”. Besides, in series [1], the “Inhibition … (protein translation)” value is “did not inhibit protein translation”. The “Inhibitory effect on ERK activity / activation” value in the series with ERK is recorded as “do not show any or very little inhibitory effects on ERK activity”.
In the case of `COC(=O)C1C(OC(C)=O)C2(O)c3c(OC)cc(OC)cc3OC2(c2ccc(OC)cc2)C1c1ccccc1` (centres unmarked) [Roc-AA, C-1-O-acetyl-methylrocaglate], the “Protection of normal T cells” value in the series on Peripheral blood T cells is “did not protect T cells”. For the same compound, in series [1], the “Inhibition … (protein translation)” value is reported as “did not inhibit protein translation”. The “Inhibitory effect on ERK activity / activation” value with ERK is recorded as “do not show any or very little inhibitory effects on ERK activity”.
Regarding `COC(=O)[C@H]1[C@@H](O)[C@@]2(O)c3c(OC)cc(OC)cc3O[C@@]2(c2ccc(OC)c(O)c2)[C@@H]1c1ccccc1` [Roc-J, 30-hydroxyaglafoline], in the series on Peripheral blood T cells, the “Protection of normal T cells” value was “different levels of protection”. The “Inhibition … (protein translation)” value in series [1] was “inhibited [^35S]methionine incorporation at different degrees”. The “Inhibitory effect on ERK activity / activation” value in the series on ERK is recorded as “inhibit ERK activation with different efficacies”.
